According to patent US8647824B2, “Microbial reductive dehalogenation of vinyl chloride” (The Board of Trustees of the Leland Stanford Junior …, priority 2004, dated 2014):
Several values for one entry are separate records, joined by “and”; a condition that tells them apart may be missing. Identical values can stand only once.

Assays:
Pinellas culture = experiment: Batch dechlorination and growth kinetics, Pinellas culture; format: cell-based, Dehalococcoides-like microorganisms; settings: for Maximum Growth Rate: 95% confidence interval
Source text: (§1) Stock cultures. The Victoria mixed culture, containing strain VS, was maintained in a closed continuously stirred tank reactor (CSTR) as previously described. A VC enrichment of this culture, maintained over 5 years, was also used in these investigations. Liquid cultures of the three other cultures evaluated (Pinellas, KB-1/VC, and Dehalococcoides ethenogenes strain 195) were kept in anaerobic bottles, stored in an anaerobic chamber (10% H2, 10% CO2, 80% N2). The bottles were amended with TCE (1-3 μL neat liquid), VC (250 μL gas), and PCE (1-3 μL neat liquid) being added to each, respectively, approximately every two weeks.
(§2) Batch studies. For the experimental portion of this research, two studies were undertaken, one a comparative VC growth study, and the other a comparative growth and substrate utilization study with different chlorinated ethenes. These studies compared the dechlorination abilities of Dehalococcoides ethenogenes strain 195 and the Dehalococcoides-like microorganisms in the three mixed cultures (Victoria, KB-1/VC, and Pinellas).
(§3) For the first study, a VC enriched inoculum was first developed for each of the three mixed cultures. Here, bottles (120 mL) were filled with 60 mL of anaerobic media in an anaerobic chamber as previously described, and inoculated with 200 μL of each stock culture. Gaseous VC (99.5%) was added with a gas tight syringe (200 μL). The cultures were then moved to a shaker (60-80 rpm) in an anaerobic chamber (20±2° C.). Immediately after 5 μmol of ethene was formed in a bottle, 200 μL of the culture was transferred to fresh media (60 mL), in triplicate, and VC was again added (200 μL). The inoculum for the growth study was that formed after exactly 4 μmol of ethene was produced following this second transfer. To compare growth rates on VC, a range in concentration of each inocula (0.1, 0.3, 1, 3, 9 mL) was transferred to fresh media (as above) to result in a liquid volume of 60 mL, and gaseous VC (200 μL) was added to each. […] Hydrogen served as the electron donor and was non-limiting (>3%) in all studies. Headspace samples were periodically removed by syringe (250 μL) for chlorinated ethene analyses.
(§4) The purpose of the second study was to compare dechlorination rates of PCE, TCE and DCE between the three different cultures that grew on VC (Victoria, KB-1/VC and Pinellas). The development of inocula here was performed with VC, just as in the first study. For the growth and substrate utilization experiments, triplicate bottles were set up for each culture containing 1 mL of inoculum and either neat PCE (0.4 μL), neat TCE (0.3 μL), saturated DCE solution (34 μL) or gaseous VC (200 μL). To further investigate TCE removal, bottles (120 mL) were filled with 20 mL of a highly enriched culture of strain VS made from the Victoria culture. Duplicate bottles were supplied with gaseous VC (50 μL on day 0, then 150 μL on day 3) or TCE (0.4 μL neat liquid). Dechlorination was followed until all VC or TCE was converted to ethene (day 12). The change in strain VS concentration during VC and TCE utilization was then determined both by competitive PCR and by an activity procedure evaluated previously for strain VS. In the activity procedure a non-growth limiting concentration of VC (150 μL) along with excess hydrogen is added to a culture and the initial dechlorination rate is measured (over <1 day). A good estimate of strain VS concentration can then be obtained using the previously determined strain VS maximum VC utilization rate (7.8×10^−10 μmol Cl^− (cell·d)^−1). The increase in strain VS concentration during TCE or VC utilization was determined with these two procedures on the culture before and after TCE and VC utilization.
(§5) Comparative dechlorination and growth kinetics. With mixed cultures, the concentration of organisms carrying out a particular reaction is generally unknown and difficult to determine. […]

KB-1/VC culture = experiment: Batch dechlorination and growth kinetics, KB-1/VC culture; format: cell-based, Dehalococcoides-like microorganisms; settings: for Maximum Growth Rate: 95% confidence interval
Source text: as §1, §2, §3, §4, §5

[1] = test system: Victoria mixed culture, containing strain VS; experiment: Batch dechlorination and growth kinetics, Victoria mixed culture; format: cell-based, Dehalococcoides species strain VS; settings: for Maximum Growth Rate: VS Mixed (Victoria) culture, 95% confidence interval, least-squares model fit
Source text: as §1, §2, §3, §4, §5

SMILES | Half velocity coefficient KT (Pinellas culture) [µM] | Maximum Growth Rate (Pinellas culture) | Half velocity coefficient KT (KB-1/VC culture) [µM] | Maximum Growth Rate (KB-1/VC culture) | Maximum Growth Rate [1] | Half velocity coefficient KT ([1]; VS Mixed culture) [µM] | time to form 5 μmol of ethene (Pinellas culture; 200 μL VC) [days] | time to form 5 μmol of ethene (KB-1/VC culture; 200 μL VC) [days] | time to form 5 μmol of ethene ([1]; Victoria culture, 200 μL VC) [days]
ClC=C(Cl)Cl [TCE, trichloroethene] | 10.5 ± 0.7 | 0.49 day⁻¹ and 0.49 ± 0.03 day⁻¹ | 10.0 ± 2.0 | 0.33 ± 0.06 day⁻¹ | 0.35 ± 0.07 day⁻¹ | 9.0 ± 0.4 |  |  | 
C=CCl [VC, vinyl chloride] |  | 0.28 day⁻¹ and 0.28 ± 0.01 day⁻¹ |  | 0.42 day⁻¹ and 0.42 ± 0.03 day⁻¹ | 0.49 day⁻¹ and 0.49 ± 0.02 day⁻¹ |  | 21 | 18 | 18
